Reference: patent US20230058171A1, “NEW ORAL PHARMACEUTICAL COMPOSITION FOR CANCER THERAPY” (BOEHRINGER INGELHEIM INTERNATIONAL GMBH, priority 2021, published 2023)

System: patients with advanced or metastatic solid tumors
Test: Trial 1403-0001 dose finding: MTD/RDE, BLRM analysis with overdose control (EWOC)
Assay type: in vivo
Details: for N of evaluable patients with events of interests: all cycles
From the text: Preliminary pharmacokinetic (PK) data were also used as supportive information for the dose decision.

## Cc1c(C(=O)O)ccc2c3n(nc12)[C@@H]1[C@H](C3)N(CC2CC2)[C@@]2(C(=O)Nc3cc(Cl)ccc32)[C@H]1c1cccc(Cl)c1F [MDM2-antagonist of formula I, (2′S,3′S,3a'S,10a'S)-6-chloro-3′-(3-chloro-2-fluorophenyl)-1′-(cyclopropylmethyl)-6′-methyl-2-oxo-1,2,3′,3a′,10′,10a′-hexahydro-1′H-spiro[indole-3,2′-pyrrolo[2′,3′:4,5]pyrrolo[1,2-b]indazole]-7′-carboxylic acid]
Arm A, 10 mg (1 evaluable)
  N of evaluable patients with events of interests: 1
Arm A, 20 mg (2 evaluable)
  N of evaluable patients with events of interests: 1
Arm A, 30 mg (3 evaluable)
  N of evaluable patients with events of interests: 1
Arm A, 45 mg (6 evaluable)
  N of evaluable patients with events of interests: 1
Arm A, 50 mg (4 evaluable)
  N of evaluable patients with events of interests: 1
Arm A, 60 mg (7 evaluable)
  N of evaluable patients with events of interests: 2
Arm A, 80 mg (6 evaluable)
  N of evaluable patients with events of interests: 5
Arm A, events of interest during the entire treatment period
  highest dose level that fulfilled the EWOC criterion from the additional BLRM analysis: 45 mg
monotherapy, Arm A D1 q3w
  Maximum Tolerated Dose (MTD): 60 mg
  Recommended Dose for Expansion (RDE): 45 mg
monotherapy, Arm B D1 D8 q4w
  Maximum Tolerated Dose (MTD): 45 mg
